Experimental data: ChEMBL document CHEMBL6103564, “Selective Degradation of TEADs by a PROTAC Molecule Exhibited Robust Anticancer Efficacy In Vitro and In Vivo” (J Med Chem, 2025)

Assays:
[1] = in vivo; details: ICR, mouse, iv, 5 mg/kg
[2] = in vivo; details: ICR, mouse, iv, 5 mg/kg; remark: listed apart in the source
[3] = in vivo; details: ICR, mouse, ip, 10 mg/kg
[4] = in vivo; details: ICR, mouse, po, 5 mg/kg
[5] = in vivo; details: ICR, mouse, iv, 5 mg/kg; remark: listed apart in the source
[6] = in vivo; details: ICR, mouse, ip, 10 mg/kg; remark: listed apart in the source
[7] = in vivo; details: ICR, mouse, iv, 5 mg/kg; remark: listed apart in the source
[8] = in vivo; details: ICR, mouse, po, 10 mg/kg
[9] = in vivo; details: ICR, mouse, ip, 10 mg/kg; remark: listed apart in the source
[10] = in vivo; details: ICR, mouse, po, 5 mg/kg; remark: listed apart in the source
[11] = in vivo; details: ICR, mouse, iv, 5 mg/kg; remark: listed apart in the source
[12] = in vivo; details: ICR, mouse, po, 5 mg/kg; remark: listed apart in the source
[13] = in vivo; details: ICR, mouse, iv, 5 mg/kg; remark: listed apart in the source
[14] = in vivo; details: ICR, mouse, iv, 5 mg/kg; remark: listed apart in the source
[15] = in vivo; details: ICR, mouse, ip, 10 mg/kg; remark: listed apart in the source
[16] = in vivo; details: ICR, mouse, po, 5 mg/kg; remark: listed apart in the source
[17] = in vivo; details: ICR, mouse, ip, 10 mg/kg; remark: listed apart in the source

Vd [1]: 3.79 L/kg | MRT [2]: 0.69 h | half-life [3]: 2.68 h | Cmax [4]: 7.86 ng/mL | AUC(0-t) [5]: 1220 ng·h/mL | AUC(0-inf) [6]: 3000 ng·h/mL | Vd [7]: 11.5 L/kg | bioavailability [8]: 121% | Cmax [9]: 1160 ng/mL | bioavailability [10]: 0.44% | AUC(0-inf) [11]: 1240 ng·h/mL | MRT [12]: 0.51 h | half-life [13]: 1.94 h | clearance [14]: 70.6 mL/min/kg | AUC(0-t) [15]: 2960 ng·h/mL | AUC(0-t) [16]: 5.39 ng·h/mL | MRT [17]: 2.76 h
SMILES: COCCOc1ccc(C(N)=O)c(-c2c(Cl)ccc3c2C[C@@](CNCCC2CCN(c4ccc5c(c4)C(=O)N(C4CCC(=O)NC4=O)C5=O)CC2)(c2ccccc2)O3)c1F (some centres not stated)
